Experiments:
[1] = target: T1, bradykinin 1 receptor (B1R) of the rat (Rattus norvegicus, UniProt P97583); assay: FLIPR Ca2+ assay, B1R antagonism, rat; type: cell-based; details: CHO K1 cells with rat B1R gene (rB1R cells), Des-Arg9-bradykinin at EC80, % inhibition compared with the maximum achievable inhibition; for inhibition at 10 µM: CHO-K1, 10 μM test substance, read-out: B1R antagonism, rat [10 μM] % inhibition
T1 construct: expressed in transfected cells
T1 sequence (P97583 1-337): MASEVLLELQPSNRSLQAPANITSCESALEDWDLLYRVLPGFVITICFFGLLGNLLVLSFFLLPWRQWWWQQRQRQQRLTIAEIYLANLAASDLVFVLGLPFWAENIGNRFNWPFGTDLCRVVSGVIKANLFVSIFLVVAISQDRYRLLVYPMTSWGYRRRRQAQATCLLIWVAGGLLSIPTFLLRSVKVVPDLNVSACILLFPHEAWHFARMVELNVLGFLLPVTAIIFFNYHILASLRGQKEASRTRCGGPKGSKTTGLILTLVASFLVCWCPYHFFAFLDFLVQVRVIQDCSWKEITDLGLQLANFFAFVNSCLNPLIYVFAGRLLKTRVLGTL
Method in brief: (§1)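 CHO K1 cells stably expressing human or rat B1R, loaded with Fluo-4 and read in FLIPR (ex 488, em 540 nm, peak fluorescence). Test compound 10 μM preincubated 10-20 min, then EC80 agonist added (Lys-Des-Arg9-bradykinin for human, Des-Arg9-bradykinin for rat); % inhibition relative to maximum achievable inhibition.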

[2] = target: T2, human bradykinin 1 receptor (B1R) (Homo sapiens, UniProt P46663); assay: FLIPR Ca2+ assay, B1R antagonism, human; type: cell-based; details: 10 μM test substance, CHO K1 cells with human B1R gene (hB1R cells), Lys-Des-Arg9-bradykinin at EC80, % inhibition compared with the maximum achievable inhibition; for inhibition at 10 µM: read-out: B1R antagonism, human [10 μM] % inhibition
T2 construct: expressed in transfected cells
T2 sequence (P46663 1-353): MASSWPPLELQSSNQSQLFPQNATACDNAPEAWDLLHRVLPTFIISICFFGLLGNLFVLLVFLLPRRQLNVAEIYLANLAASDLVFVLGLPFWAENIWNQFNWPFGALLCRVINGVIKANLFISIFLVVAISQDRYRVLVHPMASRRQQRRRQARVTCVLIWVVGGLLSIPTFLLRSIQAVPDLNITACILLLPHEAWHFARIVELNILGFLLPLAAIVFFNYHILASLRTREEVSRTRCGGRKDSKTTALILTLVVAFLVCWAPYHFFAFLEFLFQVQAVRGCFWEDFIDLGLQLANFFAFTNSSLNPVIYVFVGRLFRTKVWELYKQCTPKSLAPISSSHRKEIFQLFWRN
Method in brief: as §1

Row | Compound | inhibition at 10 µM [1] [%] | inhibition at 10 µM [2] [%] | B1R antagonism, rat [10 μM] % inhibition ([1]; 10 μM test substance) [%] | B1R antagonism, human [10 μM] % inhibition ([2]; 10 µM) [%]
1 | COc1cc(C)c(S(=O)(=O)N(CCOCC(=O)N2CCC(OCC[N+]3(C)CCCC3)(c3cccnc3)CC2)C2CC2)c(C)c1 [Example 58, N-cyclopropyl-4-methoxy-2,6-dimethyl-N-[2-[2-[4-[2-(1-methyl-pyrrolidin-1-ium-1-yl)-ethoxy]-4-pyridin-3-yl-piperidin-1-yl]-2-oxo-ethoxy]-ethyl]-benzenesulfonic acid amide iodide] | 104 | 100 |  | 
2 | COc1cc(C)c(S(=O)(=O)N(C)CCOCC(=O)N2CCC(OCCN3CCCC3)(c3cccc(F)c3)CC2)c(C)c1C [Example 114, N-[2-[2-[4-(3-fluorophenyl)-4-(2-pyrrolidin-1-yl-ethoxy)-piperidin-1-yl]-2-oxo-ethoxy]-ethyl]-4-methoxy-N,2,3,6-tetramethyl-benzenesulfonic acid amide] | 99 | 100 |  | 
3 | COc1cc(C)c(S(=O)(=O)N2CCCC[C@H]2COCC(=O)N2CCC(OCCN3CCCC3)(c3cccc(Cl)c3)CC2)c(C)c1 [Example 56, 1-[4-(3-chlorophenyl)-4-(2-pyrrolidin-1-yl-ethoxy)-piperidin-1-yl]-2-[[(2S)-1-[(4-methoxy-2,6-dimethyl-phenyl)sulfonyl]-piperidin-2-yl]-methoxy]-ethanone] | 100 | 99 |  | 
4 | Cc1cc(S(=O)(=O)N2CCCCC2CCC(=O)N2CCC(OCCCN3CCN(C)CC3)(c3cccnc3)CC2)c(C)cc1Cl (centres unmarked) [Example 36, 3-(1-(4-chloro-2,5-dimethylphenylsulfonyl)piperidin-2-yl)-1-(4-(3-(4-methylpiperazin-1-yl)propoxy)-4-(pyridin-3-yl)piperidin-1-yl)propan-1-one] | 93 | 85 |  | 
5 | COc1cc(C)c(S(=O)(=O)N2c3ccccc3OCC2COCC(=O)N2CCC(OCCN3CCCC3)(c3cccnc3)CC2)c(C)c1 (centres unmarked) [Example 106, 2-[[4-[(4-methoxy-2,6-dimethyl-phenyl)sulfonyl]-3,4-dihydro-2H-[1,4]benzoxazin-3-yl]-methoxy]-1-[4-pyridin-3-yl-4-(2-pyrrolidin-1-yl-ethoxy)-piperidin-1-yl]-ethanone] | 101 | 100 |  | 
6 | COc1cc(C)c(S(=O)(=O)N2c3ccccc3OCC2COCC(=O)N2CCC(OCCN3CCCC3)(c3cccc(F)c3)CC2)c(C)c1 (centres unmarked) [Example 107, 1-[4-(3-fluorophenyl)-4-(2-pyrrolidin-1-yl-ethoxy)-piperidin-1-yl]-2-[[4-[(4-methoxy-2,6-dimethyl-phenyl)sulfonyl]-3,4-dihydro-2H-[1,4]benzoxazin-3-yl]-methoxy]-ethanone] | 97 | 98 |  | 
7 | O=C(COCC1COc2ccccc2N1S(=O)(=O)c1ccccc1C(F)(F)F)N1CCC(OCCN2CCCC2)(c2ccncc2)CC1 (centres unmarked) [Example 112, 1-[4-pyridin-4-yl-4-(2-pyrrolidin-1-yl-ethoxy)-piperidin-1-yl]-2-[[4-[[2-(trifluoromethyl)-phenyl]sulfonyl]-3,4-dihydro-2H-[1,4]benzoxazin-3-yl]-methoxy]-ethanone] | 81 | 100 |  | 
8 | O=C(COCC1CCc2ccccc2N1S(=O)(=O)c1ccc(Cl)c(Cl)c1)N1CCC(OCCCN2CCCCC2)(c2cccnc2)CC1 (centres unmarked) [Example 19, 2-((1-(3,4-dichlorophenylsulfonyl)-1,2,3,4-tetrahydroquinolin-2-yl)methoxy)-1-(4-(3-(piperidin-1-yl)propoxy)-4-(pyridin-3-yl)piperidin-1-yl)ethanone] | 94 | 103 |  | 

Now from value to compound:

Row | inhibition at 10 µM [1] [%] | inhibition at 10 µM [2] [%] | B1R antagonism, rat [10 μM] % inhibition ([1]; 10 μM test substance) [%] | B1R antagonism, human [10 μM] % inhibition ([2]; 10 µM) [%] | Compound
9 | 102 | 100 |  |  | Cc1cccc(Cl)c1S(=O)(=O)N1CCCCC1CCCC(=O)N1CCC(OCCN2CCCC2)(c2cccnc2)CC1 (centres unmarked) [Example 9, 4-(1-(2-chloro-6-methylphenylsulfonyl)piperidin-2-yl)-1-(4-(pyridin-3-yl)-4-(2-(pyrrolidin-1-yl)ethoxy)piperidin-1-yl)butan-1-one]
10 | 99 | 100 |  |  | COc1cc(C)c(S(=O)(=O)N2CCCCC2CCCC(=O)N2CCC(OCCN3CCCC3)(c3cccc(F)c3)CC2)c(C)c1 (centres unmarked) [Example 89, 1-[4-(3-fluorophenyl)-4-(2-pyrrolidin-1-yl-ethoxy)-piperidin-1-yl]-4-[1-[(4-methoxy-2,6-dimethyl-phenyl)sulfonyl]-piperidin-2-yl]-butan-1-one]
11 | 102 | 39 |  |  | O=C(CC1CCCCN1S(=O)(=O)c1cccc(C(F)(F)F)c1)N1CCC(OCCN2CCCC2)(c2cccnc2)CC1 (centres unmarked) [Example 22, 1-(4-(pyridin-3-yl)-4-(2-(pyrrolidin-1-yl)ethoxy)piperidin-1-yl)-2-(1-(3-(trifluoromethyl)phenylsulfonyl)piperidin-2-yl)ethanone]
12 | 103 | 100 |  |  | COc1cc(C)c(S(=O)(=O)N2CCCC[C@H]2COCC(=O)N2CCCC(OCCN3CCCC3)(c3cccnc3)CC2)c(C)c1 (stereo partly drawn) [Example 55, 2-[[(2S)-1-[(4-methoxy-2,6-dimethyl-phenyl)sulfonyl]-piperidin-2-yl]-methoxy]-1-[4-pyridin-3-yl-4-(2-pyrrolidin-1-yl-ethoxy)-azepan-1-yl]-ethanone]
13 | 103 | 100 |  |  | COc1cc(C)c(S(=O)(=O)N2CCCC[C@H]2COCC(=O)N2CCC(OCCN3CCCC3)(c3ccncc3)CC2)c(C)c1 [Example 57, 2-[[(2S)-1-[(4-methoxy-2,6-dimethyl-phenyl)sulfonyl]-piperidin-2-yl]-methoxy]-1-[4-pyridin-4-yl-4-(2-pyrrolidin-1-yl-ethoxy)-piperidin-1-yl]-ethanone]
14 | 102 | 102 |  |  | COc1cc(C)c(S(=O)(=O)N2CCCCC2COCC(=O)N2CCC(OCCCN3CCCCC3)(c3cccnc3)CC2)c(C)c1 (centres unmarked) [Example 17, 2-((1-(4-methoxy-2,6-dimethylphenylsulfonyl)piperidin-2-yl)methoxy)-1-(4-(3-(piperidin-1-yl)propoxy)-4-(pyridin-3-yl)piperidin-1-yl)ethanone]
15 | 97 | 21 |  |  | CN1CCN(CCCOC2(c3cccnc3)CCN(C(=O)CC3CCCCN3S(=O)(=O)c3cccc(C(F)(F)F)c3)CC2)CC1 (centres unmarked) [Example 35, 1-(4-(3-(4-methylpiperazin-1-yl)propoxy)-4-(pyridin-3-yl)piperidin-1-yl)-2-(1-(3-(trifluoromethyl)phenylsulfonyl)piperidin-2-yl)ethanone]
16 |  |  | 102 | 100 | COc1cc(C)c(S(=O)(=O)N2CCCCC2COCC(=O)N2CCC(OCCN3CCCC3)(c3cccnc3)CC2)c(C)c1 (centres unmarked) [Example 82, 2-[[1-[(4-methoxy-2,6-dimethyl-phenyl)sulfonyl]-piperidin-2-yl]-methoxy]-1-[4-pyridin-3-yl-4-(2-pyrrolidin-1-yl-ethoxy)-piperidin-1-yl]-ethanone]
17 | 105 | 99 |  |  | Cc1cccc(Cl)c1S(=O)(=O)N1CCCC[C@H]1COCC(=O)N1CCC(OCCN2CCCC2)(c2cccnc2)CC1 [Example 48, (S)-2-((1-(2-chloro-6-methylphenylsulfonyl)piperidin-2-yl)methoxy)-1-(4-(pyridin-3-yl)-4-(2-(pyrrolidin-1-yl)ethoxy)piperidin-1-yl)ethanone]
18 | 102 | 104 |  |  | COc1cc(C)c(S(=O)(=O)N2CCCCC2COCC(=O)N2CCC(OCCN3CCCC3)(c3cccnc3)CC2)c(C)c1 (centres unmarked) [Example 20, 2-((1-(4-methoxy-2,6-dimethylphenylsulfonyl)piperidin-2-yl)methoxy)-1-(4-(pyridin-3-yl)-4-(2-(pyrrolidin-1-yl)ethoxy)piperidin-1-yl)ethanone]
19 | 46 | 103 |  |  | Cc1cc(S(=O)(=O)N2CCCCC2CCC(=O)N2CCC(OCCCN3CCCCC3)(c3cccnc3)CC2)c(C)cc1Cl (centres unmarked) [Example 12, 3-(1-(4-chloro-2,5-dimethylphenylsulfonyl)piperidin-2-yl)-1-(4-(3-(piperidin-1-yl)propoxy)-4-(pyridin-3-yl)piperidin-1-yl)propan-1-one]
